Experimental findings from ChEMBL document CHEMBL5376003, “Structure-Activity Relationship of FL118 Platform Position 7 Versus Position 9-Derived Compounds and Their Mechanism of Action and Antitumor Activity” (J Med Chem, 2023) are described below.

By IC50 is commonly meant the point on the concentration scale where inhibition reaches its midpoint.

The source made the active and inactive calls. No cut-off for these calls is given here.

One experiment has as its system A549. Nature of the experiment: Growth inhibition of human A549 cells incubated for 48 hrs by MTT reagent based ELISA reader analysis. The class given is functional, cell-based. The settings on record: A549, 48 h.
Experiment [1] relates to PDX14244. Kind of experiment: Antitumor activity against human PDX14244 cells xenografted in SCID mouse model assessed as reduction in tumor volume at 8 mg/kg,po administrated once per week for 3 weeks. The class given is functional, organism-based.
The test system of a further experiment is HepG2. Kind of experiment: Growth inhibition of human HepG2 cells incubated for 48 hrs by MTT reagent based ELISA reader analysis. The settings on record: HepG2, 48 h. The class given is functional, cell-based.
The test system of experiment [2] is PDX27454. Kind of experiment: Antitumor activity against human PDX27454 cells xenografted in SCID mouse model assessed as reduction in tumor volume at 8 mg/kg,po administrated once per week for 3 weeks. The class given is functional, organism-based.
The subject of experiment [3] is HCT-116. Kind of experiment: Growth inhibition of human HCT-116 cells incubated for 48 hrs by MTT reagent based ELISA reader analysis. Format: functional, cell-based. Conditions: HCT-116, 48 h.
The test system of experiment [4] is HCT-116. Nature of the experiment: Induction of apoptosis in human HCT-116 cells assessed as increase in intracellular ROS level incubated for 48 hrs by DCFH-DA staining based fluorescence microscopy. Format: functional, cell-based.
The subject of experiment [5] is PDX27454. Kind of experiment: Antitumor activity against human PDX27454 cells xenografted in SCID mouse model assessed as reduction in tumor volume at 2 mg/kg,po administrated once per week for 3 weeks. The class given is functional, organism-based. In general terms: In xenograft studies the graft and the host belong to different species.
The test system of another experiment is HeLa. Nature of the experiment: Growth inhibition of human HeLa cells incubated for 48 hrs by MTT reagent based ELISA reader analysis. Format: functional, cell-based. A general note: Tetrazolium assays rely on reduction of a dye to a coloured formazan, in cell work by metabolically active cells.
In another experiment the test system is MCF7. Kind of experiment: Growth inhibition of human MCF7 cells incubated for 48 hrs by MTT reagent based ELISA reader analysis. The class given is functional, cell-based. The settings on record: MCF7, 48 h.
Experiment [6] deals with PDX14244. Kind of experiment: Antitumor activity against human PDX14244 cells xenografted in SCID mouse model assessed as reduction in tumor volume at 2 mg/kg,po administrated once per week for 3 weeks. Format: functional, organism-based.
For experiment [7], the system named is HCT-116. Nature of the experiment: Inhibition of cell migration in human HCT-116 cells assessed as intercellular distance at 5 nM incubated for 48 hrs by inverted phase-contrast microscopic analysis. Format: functional.
For experiment [8], the system named is HCT-116. Nature of the experiment: Induction of cell cycle arrest in human HCT-116 cells assessed as accumulation of cells at G2/M phase at 2.5 to 10 nM incubated for 48 hrs by Annexin V-FITC/PI staining based flow cytometry assay. Format: functional. The settings on record: dose 2.5-10 nM. On the technique in general: Flow cytometry measures light scatter and fluorescence of single cells or particles in a stream.

Experiment [9] deals with HCT-116. Nature of the experiment: Induction of cell cycle arrest in human HCT-116 cells assessed as accumulation of cells at S phase at 2.5 to 10 nM incubated for 48 hrs by Annexin V-FITC/PI staining based flow cytometry assay. The settings on record: dose 2.5-10 nM. Format: functional.
In experiment [10] the test system is HCT-116. Nature of the experiment: Induction of apoptosis in human HCT-116 cells at 2.5 to 10 nM incubated for 48 hrs by Annexin V-FITC/PI staining based flow cytometry assay. The class given is functional, cell-based. Conditions: dose 2.5-10 nM.
In experiment [11] the test system is HCT-116. Nature of the experiment: Induction of apoptosis in human HCT-116 cells assessed as downregulation of Survivin protein expression incubated for 48 hrs by Western blotting analysis. The class given is functional, cell-based.
Experiment [12] has as its system HCT-116. Nature of the experiment: Inhibition of cell migration in human HCT-116 cells assessed as intercellular distance at 5 nM incubated for 24 hrs by inverted phase-contrast microscopic analysis (reference value: 1 +/- 0.2 millimeter). The class given is functional.
Experiment [13] deals with HCT-116. Kind of experiment: Induction of apoptosis in human HCT-116 cells assessed as downregulation of MCL-1 protein expression incubated for 48 hrs by Western blotting analysis. Format: functional, cell-based.
The subject of experiment [14] is HCT-116. Nature of the experiment: Induction of apoptosis in human HCT-116 cells assessed as increase in intracellular ROS level at 10 to 1000 nM incubated for 4 to 8 hrs by DCFH-DA staining based fluorescence microscopy. Format: functional, cell-based. The settings on record: dose 10-1000 nM, time 4-8 hrs.
The target in experiment [15] is T1, DNA topoisomerase 1 (Homo sapiens) (UniProt P11387).
T1 sequence (whole entry): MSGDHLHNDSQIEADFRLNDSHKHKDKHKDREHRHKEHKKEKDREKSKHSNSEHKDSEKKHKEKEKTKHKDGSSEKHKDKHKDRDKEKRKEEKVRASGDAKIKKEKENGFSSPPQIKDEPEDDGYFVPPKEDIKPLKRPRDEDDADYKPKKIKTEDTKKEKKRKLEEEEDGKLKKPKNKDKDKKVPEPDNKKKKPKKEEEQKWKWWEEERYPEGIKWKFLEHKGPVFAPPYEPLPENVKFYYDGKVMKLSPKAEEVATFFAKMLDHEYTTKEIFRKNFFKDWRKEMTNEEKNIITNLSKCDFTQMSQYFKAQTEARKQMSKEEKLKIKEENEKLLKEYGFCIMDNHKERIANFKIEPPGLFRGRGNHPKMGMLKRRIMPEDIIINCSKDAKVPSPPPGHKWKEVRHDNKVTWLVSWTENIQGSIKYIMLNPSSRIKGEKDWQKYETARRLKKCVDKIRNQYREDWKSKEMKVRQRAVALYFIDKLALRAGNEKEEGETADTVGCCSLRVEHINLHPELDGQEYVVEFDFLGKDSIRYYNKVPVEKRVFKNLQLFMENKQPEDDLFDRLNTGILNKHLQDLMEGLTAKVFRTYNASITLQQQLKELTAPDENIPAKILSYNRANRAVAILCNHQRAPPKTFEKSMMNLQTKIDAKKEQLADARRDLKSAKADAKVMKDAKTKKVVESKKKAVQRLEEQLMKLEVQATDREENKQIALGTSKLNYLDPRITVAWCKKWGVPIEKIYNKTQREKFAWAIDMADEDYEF
Nature of the experiment: Inhibition of topoisomerase 1 (unknown origin) assessed as relaxation of supercoiled plasmid pBR322 DNA at 25 to 100 uM incubated for 30 mins by ethidium bromide staining based agarose gel electrophoresis. Conditions: dose 25-100 µM.

The subject of experiment [16] is HCT-116. Kind of experiment: Induction of apoptosis in human HCT-116 cells assessed as increase in intracellular ROS level at 10 to 1000 nM incubated for 12 hrs by DCFH-DA staining based fluorescence microscopy. Format: functional, cell-based. Conditions: dose 10-1000 nM.
In experiment [17] the test system is HCT-116. Kind of experiment: Induction of apoptosis in human HCT-116 cells assessed as downregulation of XIAP protein expression incubated for 48 hrs by Western blotting analysis. The class given is functional, cell-based.
Experiment [18] has as its system HCT-116. Nature of the experiment: Inhibition of cell migration in human HCT-116 cells assessed as intercellular distance at 5 nM by inverted phase-contrast microscopic analysis (reference value: 2.5 +/- 0.7 millimeter). Format: functional.
For experiment [19], the system named is HCT-116. Nature of the experiment: Inhibition of cell migration in human HCT-116 cells assessed as scratch repair rate at 5 nM incubated for 48 hrs by inverted phase-contrast microscopic analysis. The class given is functional. Also noted: scale not given: the % may be the effect or the level left.

As to `CC[C@@]1(O)C(=O)OCc2c1cc1n(c2=O)Cc2cc3c(-c4ccc([Si](C)(C)C)cc4)c4c(cc3nc2-1)OCO4`, the IC50 in the experiment with A549 stood at 85.8 nM; with HepG2 it was 176 nM; in the experiment with HCT-116 [3], 253 nM; in the experiment on HeLa it was 160 nM; with MCF7, 104 nM. For the same compound, the outcome in the experiment with PDX14244 [1], in the experiment with PDX27454 [2], in the experiment with PDX27454 [5] and in the experiment with PDX14244 [6] was Active. Besides, the Activity entry in the experiment with HCT-116 [4] is “Dose-Dependent Effect”.
As for `CC[C@@]1(O)C(=O)OCc2c1cc1n(c2=O)Cc2c-1nc1cc3c(cc1c2-c1ccc(C(F)(F)F)cc1)OCO3`, the Activity with HCT-116 [7] was 0.8 mm; in the experiment with HCT-116 [12], 1.5 mm; with HCT-116 [4], “Dose-Dependent Effect”; with HCT-116 [18] it was 2.6 mm; with HCT-116 [19], 69.2%. Moreover, the IC50 was found to be 78.9 nM in the experiment on A549; 86.6 nM with HepG2; 40.8 nM in the experiment on HCT-116 [3]; 49.5 nM with HeLa; 47.1 nM in the experiment on MCF7. Also, the outcome with HCT-116 [8], in the experiment on HCT-116 [9], with HCT-116 [10], in the experiment with HCT-116 [11], in the experiment on PDX14244 [1] and with HCT-116 [13] was Active. The outcome with HCT-116 [14], in the experiment on PDX27454 [2], in the experiment on HCT-116 [16], in the experiment on HCT-116 [17], with PDX27454 [5] and with PDX14244 [6] was Active. For the same compound, the “Topoisomerase 1 inhibition” value in [15] was “Active”.
In the case of `CC[C@@]1(O)C(=O)OCc2c1cc1n(c2=O)Cc2cc3c(-c4ccc(OC(C)C)cc4)c4c(cc3nc2-1)OCO4`, the IC50 in the experiment with A549 was 142 nM; in the experiment on HepG2, 910 nM; in the experiment on HCT-116 [3] it was 948 nM; with HeLa, 152 nM; in the experiment with MCF7, 600 nM. Moreover, the outcome with PDX14244 [1], in the experiment with PDX27454 [2], in the experiment with PDX27454 [5] and in the experiment with PDX14244 [6] was Active. In the experiment with HCT-116 [4], the Activity result was “Dose-Dependent Effect”.
